Measured values reported in patent US20110269628A1, “Pesticidal Mixtures” (priority 2009, published 2011).

Tests used:
[1] = tested on: Imidazolinone tolerant soybeans; experiment: Chlorophyll content (SPAD chlorophyll-meter), soybean pot experiment; assay type: in vivo; conditions: 1 DAA; application at BBCH 14; pyraclostrobin 0.6 L/ha (250 g/L), imazapyr 0.3 L/ha (480 g/L)
[2] = tested on: Imidazolinone tolerant soybeans; experiment: Stomatal conductance gs (infrared gas analyzer), soybean pot experiment; assay type: in vivo; conditions: 1 DAA; application at BBCH 14; pyraclostrobin 0.3 L/ha (250 g/L), imazapyr 0.075 L/ha (480 g/L)

SMILES	Chlorophyll Content (SPAD) [1]	OE = observed efficacy (%), increase of chlorophyll content vs untreated control [1]	OE = observed efficacy (%), increase of stomatal conductance vs untreated control [2]	SC = Stomatal Conductance (gs) [2]
COC(=O)N(OC)c1ccccc1COc1ccn(-c2ccc(Cl)cc2)n1 [Pyraclostrobin, pyraclostrobin]	27.6	2.6%	7.4%	0.421 mol m^−2s^−1
CC(C)C1(C)N=C(c2ncccc2C(=O)O)NC1=O (centres unmarked) [Imazapyr, imazapyr]	26.5	−1.5%	−3.1%	0.380 mol m^−2s^−1
